According to ChEMBL document CHEMBL5223095, “Structure activity relationship of N-1 substituted 1,5-naphthyrid-2-one analogs of oxabicyclooctane-linked novel bacterial topoisomerase inhibitors as broad-spectrum antibacterial agents (Part-9)” (Bioorg Med Chem Lett, 2022):
Converted amounts (≈) assume the structure as drawn.

Key:
Type in all cases: functional
Acinetobacter baumannii = experiment: Antibacterial activity against Acinetobacter baumannii IID876 assessed as bacterial growth inhibition by CLSI protocol agar-based assay
Pseudomonas aeruginosa = experiment: Antibacterial activity against Pseudomonas aeruginosa PAO1 assessed as bacterial growth inhibition by CLSI protocol agar-based assay
Staphylococcus aureus = experiment: Antibacterial activity against methicillin-resistant Staphylococcus aureus OITII-971 assessed as bacterial growth inhibition by CLSI protocol agar-based assay
Enterococcus faecium = experiment: Antibacterial activity against Vanomycin-resistant Enterococcus faecium assessed as bacterial growth inhibition by CLSI protocol agar-based assay
Escherichia coli = experiment: Antibacterial activity against Escherichia coli ATCC 25922 assessed as bacterial growth inhibition by CLSI protocol agar-based assay
Streptococcus pneumoniae = experiment: Antibacterial activity against Streptococcus pneumoniae IID553 assessed as bacterial growth inhibition by CLSI protocol agar-based assay

SMILES | MIC (Acinetobacter baumannii) | MIC (Pseudomonas aeruginosa) | MIC (Staphylococcus aureus) | MIC (Enterococcus faecium) | MIC (Escherichia coli) | MIC (Streptococcus pneumoniae)
COc1ccc2ncc(F)c(C[C@H](O)C34CCC(NCc5ccc6c(n5)NC(=O)CO6)(CC3)CO4)c2n1 | 0.5 µg/mL (≈ 0.981 µM) | 8 µg/mL (≈ 15.7 µM) | 0.02 µg/mL (≈ 0.0393 µM) | 0.5 µg/mL (≈ 0.981 µM) | 2 µg/mL (≈ 3.93 µM) | 0.05 µg/mL (≈ 0.0981 µM)
O=c1ccc2ncc(F)c(C[C@H](O)C34CCC(NC/C=C/c5cc(F)ccc5F)(CC3)CO4)c2n1CCO | 1 µg/mL (≈ 1.89 µM) | 64 µg/mL (≈ 121 µM) | 0.5 µg/mL (≈ 0.944 µM) | 16 µg/mL (≈ 30.2 µM) | 16 µg/mL (≈ 30.2 µM) | 0.5 µg/mL (≈ 0.944 µM)
O=c1ccc2ncc(F)c(CCC34CCC(NCc5cc(-c6cccs6)on5)(CC3)CO4)c2n1CCO | 128 µg/mL (≈ 244 µM) | > 64 µg/mL | 4 µg/mL (≈ 7.62 µM) | 64 µg/mL (≈ 122 µM) | > 128 µg/mL | 4 µg/mL (≈ 7.62 µM)
O=C1COc2ccc(CNC34CCC([C@@H](O)Cc5c(F)cnc6ccc(=O)n(CCO)c56)(CC3)OC4)nc2N1 | 4 µg/mL (≈ 7.41 µM) | 16 µg/mL (≈ 29.7 µM) | 0.031 µg/mL (≈ 0.0575 µM) | 2 µg/mL (≈ 3.71 µM) | 32 µg/mL (≈ 59.3 µM) | 0.125 µg/mL (≈ 0.232 µM)
O=c1ccc2ncc(F)c(CCC34CCC(NCc5cn(-c6ncccn6)cn5)(CC3)CO4)c2n1CCO | > 32 µg/mL | > 128 µg/mL | > 32 µg/mL | > 32 µg/mL | > 32 µg/mL | > 32 µg/mL
O=c1ccc2ncc(F)c(C[C@H](O)C34CCC(NCc5cc6c(cn5)OCCO6)(CC3)CO4)c2n1CCO | 64 µg/mL (≈ 122 µM) | > 128 µg/mL | 2 µg/mL (≈ 3.8 µM) | 32 µg/mL (≈ 60.8 µM) | 128 µg/mL (≈ 243 µM) | 2 µg/mL (≈ 3.8 µM)
